Laboratory results: the supplement of paper PMC6045584
± gives the standard deviation of the averaged measurements.

How the values were obtained:
Test in all cases: surviving fraction relative to DMSO-only wells; higher = less growth inhibition
Conditions in all cases: exposure time: 5 days
FORETINIB = compound: COc1cc2c(Oc3ccc(NC(=O)C4(C(=O)Nc5ccc(F)cc5)CC4)cc3F)ccnc2cc1OCCCN1CCOCC1 [FORETINIB]
How it was run: (§1)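 A line counted only if its three screens reached replicate Pearson r >0.7 and median Z' >0.3. Tumour cells in log phase were seeded at 250–500 per well in 384-well plates and, after 24 hours, kept in continuous contact with inhibitors at 0.5, 1, 5, 10, 50, 100, 500 and 1000 nM for five days. Surviving fraction was taken from CellTiter-Glo luminescence relative to the median of DMSO-only wells.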

[1] = compound: CNCc1ccc(-c2[nH]c3cc(F)cc4c3c2CCNC4=O)cc1
How it was run: as §1

CRIZOTINIB = compound: C[C@@H](Oc1cc(-c2cnn(C3CCNCC3)c2)cnc1N)c1c(Cl)ccc(F)c1Cl [CRIZOTINIB]
How it was run: as §1

DASATINIB = compound: Cc1nc(Nc2ncc(C(=O)Nc3c(C)cccc3Cl)s2)cc(N2CCN(CCO)CC2)n1 [DASATINIB]
How it was run: as §1

[2] = compound: C[C@@H](Oc1cc(-c2cnn(C3CCNCC3)c2)cnc1N)c1c(Cl)ccc(F)c1Cl
How it was run: as §1

[3] = compound: COc1cc2ncnc(Nc3ccc(F)c(Cl)c3)c2cc1NC(=O)/C=C/CN1CCCCC1
How it was run: as §1

MLN-4924 = compound: NS(=O)(=O)OC[C@@H]1C[C@@H](n2ccc3c(N[C@H]4CCc5ccccc54)ncnc32)C[C@@H]1O [MLN-4924]
How it was run: as §1

ABIRATERONE = compound: C[C@]12CC[C@H](O)CC1=CC[C@@H]1[C@@H]2CC[C@]2(C)C(c3cccnc3)=CC[C@@H]12 [ABIRATERONE]
How it was run: as §1

OLAPARIB = compound: O=C(c1cc(Cc2n[nH]c(=O)c3ccccc23)ccc1F)N1CCN(C(=O)C2CC2)CC1 [OLAPARIB]
How it was run: as §1

XAV-939 = compound: Oc1nc(-c2ccc(C(F)(F)F)cc2)nc2c1CSCC2 [XAV-939]
How it was run: as §1

SORAFENIB = compound: CNC(=O)c1cc(Oc2ccc(NC(=O)Nc3ccc(Cl)c(C(F)(F)F)c3)cc2)ccn1 [SORAFENIB]
How it was run: as §1

TEMOZOLOMIDE = compound: Cn1nnc2c(C(N)=O)ncn2c1=O [TEMOZOLOMIDE]
How it was run: as §1

SOTRASTAURIN/AEB071 = compound: CN1CCN(c2nc(C3=C(c4c[nH]c5ccccc45)C(=O)NC3=O)c3ccccc3n2)CC1 [SOTRASTAURIN/AEB071]
How it was run: as §1

[4] = compound: CCn1c(C(=O)N(C2CC2)C2CC2)cc2c3c(ncn3C)c(Nc3cc(C)n(C)n3)nc21
How it was run: as §1

HS57T BREAST
surviving fraction (FORETINIB; 0.5 nM): 1.05 ± 0.066
surviving fraction (FORETINIB; 1 nM): 1.09 ± 0.08
surviving fraction (FORETINIB; 5 nM): 1.15 ± 0.03
surviving fraction (FORETINIB; 10 nM): 1.07 ± 0.045
surviving fraction (FORETINIB; 50 nM): 1.06 ± 0.06
surviving fraction (FORETINIB; 100 nM): 1.02 ± 0.083
surviving fraction (FORETINIB; 500 nM): 0.515 ± 0.039
surviving fraction (FORETINIB; 1000 nM): 0.47 ± 0.024
surviving fraction ([1]; 0.5 nM): 0.972 ± 0.021
surviving fraction ([1]; 1 nM): 0.994 ± 0.063
surviving fraction ([1]; 5 nM): 1.03 ± 0.09
surviving fraction ([1]; 10 nM): 0.979 ± 0.055
surviving fraction ([1]; 50 nM): 0.929 ± 0.077
surviving fraction ([1]; 100 nM): 0.971 ± 0.06
surviving fraction ([1]; 500 nM): 0.881 ± 0.03
surviving fraction ([1]; 1000 nM): 0.865 ± 0.038
surviving fraction (CRIZOTINIB; 0.5 nM): 1 ± 0.02
surviving fraction (CRIZOTINIB; 1 nM): 1.09 ± 0.056
surviving fraction (CRIZOTINIB; 5 nM): 1.14 ± 0.026
surviving fraction (CRIZOTINIB; 10 nM): 1.07 ± 0.025
surviving fraction (CRIZOTINIB; 500 nM): 0.676 ± 0.011
surviving fraction (CRIZOTINIB; 1000 nM): 0.56 ± 0.046
surviving fraction (DASATINIB; 0.5 nM): 0.852 ± 0.056
surviving fraction (DASATINIB; 1 nM): 0.814 ± 0.024
surviving fraction (DASATINIB; 5 nM): 0.832 ± 0.033
surviving fraction (DASATINIB; 10 nM): 0.788 ± 0.076
surviving fraction (DASATINIB; 50 nM): 0.423 ± 0.022
surviving fraction (DASATINIB; 100 nM): 0.37 ± 0.029
surviving fraction (DASATINIB; 500 nM): 0.17 ± 0.016
surviving fraction (DASATINIB; 1000 nM): 0.142 ± 0.0095
surviving fraction ([2]; 0.5 nM): 0.904 ± 0.058
surviving fraction ([2]; 10 nM): 0.98 ± 0.027
surviving fraction ([2]; 50 nM): 0.971 ± 0.04
surviving fraction ([2]; 100 nM): 0.926 ± 0.06
surviving fraction ([2]; 500 nM): 0.568 ± 0.016
surviving fraction ([2]; 1000 nM): 0.492 ± 0.021
surviving fraction ([3]; 0.5 nM): 0.945 ± 0.064
surviving fraction ([3]; 1 nM): 1.02 ± 0.076
surviving fraction ([3]; 5 nM): 1.07 ± 0.024
surviving fraction ([3]; 10 nM): 1.04 ± 0.038
surviving fraction ([3]; 50 nM): 1.04 ± 0.032
surviving fraction ([3]; 100 nM): 1.04 ± 0.05
surviving fraction ([3]; 500 nM): 0.86 ± 0.064
surviving fraction ([3]; 1000 nM): 0.318 ± 0.026
surviving fraction (MLN-4924; 0.5 nM): 0.977 ± 0.059
surviving fraction (MLN-4924; 1 nM): 0.977 ± 0.069
surviving fraction (MLN-4924; 5 nM): 1.02 ± 0.064
surviving fraction (MLN-4924; 10 nM): 1.01 ± 0.07
surviving fraction (MLN-4924; 50 nM): 0.783 ± 0.093
surviving fraction (MLN-4924; 100 nM): 0.523 ± 0.021
surviving fraction (MLN-4924; 500 nM): 0.139 ± 0.015
surviving fraction (MLN-4924; 1000 nM): 0.106 ± 0.0065
surviving fraction (ABIRATERONE; 0.5 nM): 1.06 ± 0.023
surviving fraction (ABIRATERONE; 1 nM): 1.16 ± 0.059
surviving fraction (ABIRATERONE; 5 nM): 1.12 ± 0.038
surviving fraction (ABIRATERONE; 10 nM): 1.1 ± 0.03
surviving fraction (ABIRATERONE; 50 nM): 1.24 ± 0.06
surviving fraction (ABIRATERONE; 100 nM): 1.17 ± 0.071
surviving fraction (ABIRATERONE; 500 nM): 1.08 ± 0.031
surviving fraction (ABIRATERONE; 1000 nM): 1.04 ± 0.1
surviving fraction (OLAPARIB; 0.5 nM): 1.09 ± 0.06
surviving fraction (OLAPARIB; 1 nM): 1.11 ± 0.036
surviving fraction (OLAPARIB; 5 nM): 1.09 ± 0.05
surviving fraction (OLAPARIB; 10 nM): 1.13 ± 0.05
surviving fraction (OLAPARIB; 50 nM): 1.1 ± 0.022
surviving fraction (OLAPARIB; 100 nM): 1.04 ± 0.053
surviving fraction (OLAPARIB; 500 nM): 0.999 ± 0.024
surviving fraction (OLAPARIB; 1000 nM): 0.914 ± 0.067
surviving fraction (XAV-939; 0.5 nM): 1.07 ± 0.023
surviving fraction (XAV-939; 1 nM): 1.11 ± 0.083
surviving fraction (XAV-939; 5 nM): 1.06 ± 0.039
surviving fraction (XAV-939; 10 nM): 1.02 ± 0.057
surviving fraction (XAV-939; 50 nM): 1.09 ± 0.046
surviving fraction (XAV-939; 100 nM): 1.054 ± 0.0092
surviving fraction (XAV-939; 500 nM): 0.889 ± 0.017
surviving fraction (XAV-939; 1000 nM): 0.843 ± 0.075
surviving fraction (SORAFENIB; 0.5 nM): 0.987 ± 0.058
surviving fraction (SORAFENIB; 1 nM): 1.045 ± 0.0089
surviving fraction (SORAFENIB; 5 nM): 1.05 ± 0.031
surviving fraction (SORAFENIB; 10 nM): 1.082 ± 0.0081
surviving fraction (SORAFENIB; 50 nM): 1.09 ± 0.057
surviving fraction (SORAFENIB; 100 nM): 1.15 ± 0.084
surviving fraction (SORAFENIB; 500 nM): 0.965 ± 0.059
surviving fraction (SORAFENIB; 1000 nM): 0.951 ± 0.021
surviving fraction (TEMOZOLOMIDE; 0.5 nM): 0.907 ± 0.067
surviving fraction (TEMOZOLOMIDE; 1 nM): 0.947 ± 0.056
surviving fraction (TEMOZOLOMIDE; 5 nM): 1.01 ± 0.051
surviving fraction (TEMOZOLOMIDE; 10 nM): 1.04 ± 0.049
surviving fraction (TEMOZOLOMIDE; 50 nM): 1.02 ± 0.033
surviving fraction (TEMOZOLOMIDE; 100 nM): 1.03 ± 0.074
surviving fraction (TEMOZOLOMIDE; 500 nM): 0.93 ± 0.058
surviving fraction (TEMOZOLOMIDE; 1000 nM): 0.948 ± 0.071
surviving fraction (SOTRASTAURIN/AEB071; 0.5 nM): 1.06 ± 0.044
surviving fraction (SOTRASTAURIN/AEB071; 1 nM): 1.08 ± 0.026
surviving fraction (SOTRASTAURIN/AEB071; 5 nM): 1.12 ± 0.056
surviving fraction (SOTRASTAURIN/AEB071; 10 nM): 1.09 ± 0.063
surviving fraction (SOTRASTAURIN/AEB071; 50 nM): 1.03 ± 0.092
surviving fraction (SOTRASTAURIN/AEB071; 100 nM): 1.05 ± 0.028
surviving fraction (SOTRASTAURIN/AEB071; 500 nM): 1.03 ± 0.031
surviving fraction (SOTRASTAURIN/AEB071; 1000 nM): 1 ± 0.087
surviving fraction ([4]; 0.5 nM): 0.959 ± 0.063
surviving fraction ([4]; 1 nM): 0.892 ± 0.0062
surviving fraction ([4]; 5 nM): 1 ± 0.045
surviving fraction ([4]; 10 nM): 0.967 ± 0.037
surviving fraction ([4]; 50 nM): 1.08 ± 0.055
surviving fraction ([4]; 100 nM): 1.01 ± 0.017
surviving fraction ([4]; 500 nM): 0.934 ± 0.049
surviving fraction ([4]; 1000 nM): 0.917 ± 0.055
